Records with an inconclusive call do not appear. Activity calls are given as the source filed them.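 The calls were made as follows: active = Compounds that reduce signal, with fitted half-maximal dose at or under twice the top valid tested dose; inconclusive = Poor fit, or flat curve losing 30 to 70% of signal; inactive = Potency past limit, flat within 30%, or opposite direction.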
Experiment: viability loss in HEK293T cells – cell-based, ATP luminescence, cherry-pick samples, cytotoxicity control, dose response (AID 687005)
Details: HEK293T viability, ATP luminescence (CellTiter-Glo), 48 h

Compound: C[C@@H]1CCCCO[C@H](CN(C)Cc2ccc3c(c2)OCO3)[C@H](C)CN([C@H](C)CO)C(=O)c2cc(NC(=O)Nc3cccc4ccccc34)ccc2O1
- activity change, negative = cytotoxicity (at 26 µM (top of the series)): 171% (inactive)

Compound: CN1C(=O)N[C@@H]2c3ccccc3O[C@@]1(C)[C@@H]2COC(=O)c1ccccc1
- activity change, negative = cytotoxicity (at 26 µM (top of the series)): -8.64% (inactive)

Compound: Cc1ccc(C)c(NC(=O)C2CCCN2C(=O)NC2CCCCC2)c1 (configuration not stated)
- activity change, negative = cytotoxicity (at 26 µM (top of the series)): 25.9% (inactive)

Compound: C[C@H]1CN([C@@H](C)CO)C(=O)CCCn2nncc2CO[C@H]1CN(C)C(=O)Oc1cccc2ccccc12
- activity change, negative = cytotoxicity (at 26 µM (top of the series)): -6.41% (inactive)

Compound: Cc1ccc(S(=O)(=O)N[C@H]2CC[C@H](CC(=O)NCc3ccccc3F)O[C@H]2CO)cc1
- activity change, negative = cytotoxicity (at 26 µM (top of the series)): 8.09% (inactive)

Compound: CO[C@H]1CC[C@@H]2CCOc3c(C#N)cccc3C(=O)N(C)C[C@@H](OC)[C@@H](C)C(=O)N(C)C[C@@H]1O2
- activity change, negative = cytotoxicity (at 26 µM (top of the series)): -16.3% (inactive)

Compound: CCC(=O)N[C@@H]1C=C[C@H](CC(=O)NCC2CCCCC2)O[C@H]1CO
- activity change, negative = cytotoxicity (at 26 µM (top of the series)): -35.2% (inactive)

Compound: C[C@H](CO)N1C[C@H](C)[C@@H](CN(C)Cc2ccncc2)OCCCC[C@H](C)Oc2ccc(NC(=O)NC3CCCCC3)cc2C1=O
- activity change, negative = cytotoxicity (at 26 µM (top of the series)): -0.008% (inactive)

Compound: CO[C@@H]1CN(C)C(=O)c2cc(NC(=O)C3CC3)ccc2OC[C@H](C)N(C(=O)c2ccncc2)C[C@H]1C
- activity change, negative = cytotoxicity (at 26 µM (top of the series)): -22.9% (inactive)

Compound: C[C@H]1CCCCO[C@@H](CN(C)C(=O)c2ccccc2)[C@@H](C)CN([C@@H](C)CO)C(=O)c2cc(NC(=O)c3ccncc3)ccc2O1
- activity change, negative = cytotoxicity (at 26 µM (top of the series)): -3.03% (inactive)

Compound: Cc1noc(C)c1NC(=O)Nc1ccc2c(c1)C(=O)N([C@H](C)CO)C[C@H](C)[C@H](CN(C)CC1CCCCC1)O2
- activity change, negative = cytotoxicity (at 26 µM (top of the series)): 40.9% (inactive)

Compound: COc1ccc(C(=O)NC(=S)Nc2ccccc2N2CCOCC2)cc1[N+](=O)[O-]
- activity change, negative = cytotoxicity (at 26 µM (top of the series)): -32.3% (inactive)

Compound: C[C@H](NC(=O)C[C@@H]1C=C[C@H](NC(=O)CN2CCOCC2)[C@H](CO)O1)c1ccccc1
- activity change, negative = cytotoxicity (at 26 µM (top of the series)): -20.9% (inactive)

Compound: COCCNC(=O)C[C@H]1CC[C@@H]2[C@H](COC[C@H](O)CN2S(=O)(=O)c2ccccc2C)O1
- activity change, negative = cytotoxicity (at 26 µM (top of the series)): 15.9% (inactive)

Compound: CC(C)NC(=O)N(C)C[C@H]1OCCCC[C@@H](C)Oc2ccc(NC(=O)c3ccccc3)cc2C(=O)N([C@@H](C)CO)C[C@@H]1C
- activity change, negative = cytotoxicity (at 26 µM (top of the series)): -10.9% (inactive)

Compound: CC(C)NC(=O)Nc1cccc2c1O[C@@H](CN(C)C(=O)Nc1ccccc1)[C@@H](C)CN([C@@H](C)CO)C2=O
- activity change, negative = cytotoxicity (at 26 µM (top of the series)): -13.9% (inactive)

Compound: CN1C(=O)c2cc(NS(=O)(=O)c3cccc(F)c3)ccc2OC[C@@H]2O[C@@H](CC(=O)O)CC[C@H]21
- activity change, negative = cytotoxicity (at 26 µM (top of the series)): -21.4% (inactive)

Compound: O=C(NC1CCCC1)N1CCCCN2[C@H](CO)[C@@H](c3ccc(-c4cncnc4)cc3)[C@H]2C1
- activity change, negative = cytotoxicity (at 26 µM (top of the series)): 41.2% (inactive)

Compound: CCNC(=O)Nc1ccc2c(c1)C(=O)N(C)[C@H]1CC[C@H](CC(=O)N[C@@H](C)c3ccccc3)O[C@H]1CO2
- activity change, negative = cytotoxicity (at 26 µM (top of the series)): 75.7% (inactive)

Compound: Cc1noc(C)c1NC(=O)N(C)C[C@H]1Oc2ccc(NC(=O)C3CC3)cc2CC(=O)N([C@@H](C)CO)C[C@H]1C
- activity change, negative = cytotoxicity (at 26 µM (top of the series)): 0.766% (inactive)

Compound: O=C(NC(=S)Nc1ccccc1N1CCOCC1)c1cccc([N+](=O)[O-])c1
- activity change, negative = cytotoxicity (at 26 µM (top of the series)): -5.81% (inactive)

Compound: CNC[C@H]1Oc2ncc(C#CCC(C)C)cc2C(=O)N([C@H](C)CO)C[C@H]1C
- activity change, negative = cytotoxicity (at 26 µM (top of the series)): 29% (inactive)

Compound: O=C(C1CCOCC1)N1C[C@H]2[C@@H](c3ccccc31)[C@@H](CO)N2Cc1ccccc1Cl
- activity change, negative = cytotoxicity (at 26 µM (top of the series)): 3.34% (inactive)

Compound: COCC(=O)NC[C@@H]1N[C@@H](CO)[C@H]1c1ccc(C2=CCCC2)cc1
- activity change, negative = cytotoxicity (at 26 µM (top of the series)): 26.4% (inactive)

Compound: CCCC(=O)Nc1ccc2c(c1)OC[C@@H](C)N(Cc1ccccn1)C[C@@H](C)[C@H](OC)CN(C)C2=O
- activity change, negative = cytotoxicity (at 26 µM (top of the series)): 25.3% (inactive)

Compound: CO[C@@H]1CN(C)C(=O)c2ccc(NC(C)=O)cc2OC[C@@H](C)N(C(=O)Cc2cccnc2)C[C@H]1C
- activity change, negative = cytotoxicity (at 23.5 µM (top of the series)): -26.2% (inactive)

Compound: CC(NC(=O)COc1ccc([N+](=O)[O-])cc1)c1ccccc1 (configuration not stated)
- activity change, negative = cytotoxicity (at 26 µM (top of the series)): 18.2% (inactive)

Compound: Cc1ccc(S(=O)(=O)Nc2ccc3c(c2)C(=O)N([C@H](C)CO)C[C@H](C)[C@@H](CN(C)Cc2ccccc2)O3)cc1
- activity change, negative = cytotoxicity (at 26 µM (top of the series)): 43.1% (inactive)

Compound: CNC[C@H]1OCCCC[C@H](C)Oc2ccc(NC(=O)CCCN(C)C)cc2C(=O)N([C@H](C)CO)C[C@@H]1C
- activity change, negative = cytotoxicity (at 26 µM (top of the series)): 15.7% (inactive)

Compound: CO[C@@H]1CN(C)C(=O)c2cc(NC(=O)Nc3cccc(F)c3)ccc2OC[C@H](C)N(C)C[C@@H]1C
- activity change, negative = cytotoxicity (at 26 µM (top of the series)): -0.56% (inactive)

Compound: COc1cccc(S(=O)(=O)Nc2ccc3c(c2)[C@H]2C[C@@H](CC(=O)NC4CCCCC4)O[C@@H](CO)[C@H]2O3)c1
- activity change, negative = cytotoxicity (at 23.5 µM (top of the series)): -20.2% (inactive)

Compound: O=C(c1ccco1)N1N=C(c2cccs2)CC1c1cc([N+](=O)[O-])ccc1O (configuration not stated)
- activity change, negative = cytotoxicity (at 26 µM (top of the series)): 37.4% (inactive)

Compound: C[C@H](CO)N1C[C@H](C)[C@H](CN(C)C(=O)Nc2ccc3c(c2)OCO3)Oc2ncc(C#CC(C)(C)O)cc2C1=O
- activity change, negative = cytotoxicity (at 23.5 µM (top of the series)): -10.7% (inactive)

Compound: CC=Cc1ccc2n(c1=O)C[C@H]1[C@H](CO)[C@@H](C(=O)NCc3ccc4c(c3)OCO4)[C@@H]2N1C(=O)C1CC1 (mixture of isomers)
- activity change, negative = cytotoxicity (at 26 µM (top of the series)): -15.5% (inactive)

Compound: C[C@@H]1CN([C@@H](C)CO)C(=O)c2cccc(NC(=O)C3CC3)c2O[C@@H]1CN(C)C
- activity change, negative = cytotoxicity (at 26 µM (top of the series)): -4.49% (inactive)

Compound: C[C@H]1CCCCO[C@H](CN(C)C(=O)c2ccncc2)[C@@H](C)CN([C@@H](C)CO)C(=O)c2cc(NC(=O)Cc3ccccc3)ccc2O1
- activity change, negative = cytotoxicity (at 26 µM (top of the series)): -3.36% (inactive)

Compound: N#C[C@H]1[C@@H](c2ccccc2)[C@@H](CO)N1C(=O)Cc1ccccc1
- activity change, negative = cytotoxicity (at 26 µM (top of the series)): -9.76% (inactive)

Compound: Cc1cccc(OCC(=O)NCc2ccccc2)c1
- activity change, negative = cytotoxicity (at 26 µM (top of the series)): -36.8% (inactive)

Compound: O=C(NCCN1CCCCC1)[C@@H]1N[C@@H]2c3ccc(-c4ccncc4)c(=O)n3C[C@@H]2[C@H]1CO
- activity change, negative = cytotoxicity (at 26 µM (top of the series)): -26.2% (inactive)

Compound: Cc1ccc(S(=O)(=O)N(C)C[C@@H]2Oc3ncc(Br)cc3C(=O)N([C@@H](C)CO)C[C@H]2C)cc1
- activity change, negative = cytotoxicity (at 26 µM (top of the series)): -14.6% (inactive)

Compound: O=C(NC[C@@H]1[C@H](c2ccccc2)[C@@H](CO)N1C(=O)Cc1cccnc1)C1CCC1
- activity change, negative = cytotoxicity (at 26 µM (top of the series)): 8.39% (inactive)

Compound: CO[C@H]1CN(C)C(=O)c2cc(NC(C)=O)ccc2OC[C@H](C)N(Cc2cccc(F)c2)C[C@@H]1C
- activity change, negative = cytotoxicity (at 23.5 µM (top of the series)): -25.3% (inactive)

Compound: Cc1noc(C)c1NC(=O)Nc1cccc2c1O[C@@H](CN(C)S(=O)(=O)c1cn(C)cn1)[C@@H](C)CN([C@@H](C)CO)C2=O
- activity change, negative = cytotoxicity (at 26 µM (top of the series)): -3.21% (inactive)

Compound: C[C@@H]1CN([C@@H](C)CO)C(=O)c2cc(-c3cncnc3)cnc2O[C@H]1CN(C)C(=O)CN1CCOCC1
- activity change, negative = cytotoxicity (at 26 µM (top of the series)): -25.3% (inactive)

Compound: COc1cc(C(=O)Oc2ccccc2N)cc(OC)c1OC
- activity change, negative = cytotoxicity (at 26 µM (top of the series)): 1.38% (inactive)

Compound: CO[C@@H]1CN(C)C(=O)c2ccc(NS(=O)(=O)c3ccc(Oc4ccccc4)cc3)cc2OC[C@H](C)NC[C@H]1C
- activity change, negative = cytotoxicity (at 26 µM (top of the series)): -26.5% (inactive)

Compound: COc1cccc(S(=O)(=O)Nc2ccc3c(c2)[C@@H]2C[C@H](CC(=O)NC4CCCCC4)O[C@H](CO)[C@@H]2O3)c1
- activity change, negative = cytotoxicity (at 26 µM (top of the series)): -27.9% (inactive)
